Legend:
Assay type in all cases: in vivo
[1] = system: Bemisia tabaci (Cotton White Fly); assay: Activity against Bemisia tabaci (cotton white fly), sprayed cotton leaf discs; details: foliar, 144 h, application rate of 200 ppm, adult white flies, 6 days after incubation
Procedure: Example B1: Activity Against Bemisia tabaci (Cotton White Fly)
Cotton leaf discs were placed on agar in 24-well microtiter plates and sprayed with aqueous test solutions prepared from 10′000 ppm DMSO stock solutions. After drying the leaf discs were infested with adult white flies. The samples were checked for mortality 6 days after incubation.

[2] = system: Diabrotica Balteata (Corn Root Worm); assay: Activity against Diabrotica balteata (corn root worm), sprayed maize sprouts; details: 96 h, application rate of 200 ppm, L2 larvae, 4 days after infestation, read-out: effect in at least one of the two categories (mortality or growth inhibition)
Procedure: Example B2: Activity Against Diabrotica Balteata (Corn Root Worm)
Maize sprouts placed onto an agar layer in 24-well microtiter plates were treated with aqueous test solutions prepared from 10′000 ppm DMSO stock solutions by spraying. After drying, the plates were infested with L2 larvae (6 to 10 per well). The samples were assessed for mortality and growth inhibition in comparison to untreated samples 4 days after infestation.
(§1) The following compounds gave an effect of at least 80% in at least one of the two categories (mortality or growth inhibition) at an application rate of 200 ppm: […]

[3] = system: Plutella xylostella (Diamond Back Moth); assay: Activity against Plutella xylostella (diamond back moth), treated artificial diet; details: 192 h, application rate of 200 ppm, Plutella eggs, 8 days after infestation, read-out: effect in at least one of the two categories (mortality or growth inhibition)
Procedure: Example B4: Activity Against Plutella xylostella (Diamond Back Moth)
24-well microtiter plates with artificial diet were treated with aqueous test solutions prepared from 10′000 ppm DMSO stock solutions by pipetting. After drying, Plutella eggs were pipetted through a plastic stencil onto a gel blotting paper and the plate was closed with it. The samples were assessed for mortality and growth inhibition in comparison to untreated samples 8 days after infestation.
as §1

[4] = system: Myzus persicae (Green Peach Aphid); assay: Activity against Myzus persicae (green peach aphid), feeding/contact activity, sunflower leaf discs; details: foliar, 144 h, application rate of 200 ppm, aphid population of mixed ages, 6 days after infestation
Procedure: Example B5: Activity Against Myzus persicae (Green Peach Aphid) Feeding/Contact Activity
Sunflower leaf discs were placed onto agar in a 24-well microtiter plate and sprayed with aqueous test solutions prepared from 10′000 ppm DMSO stock solutions. After drying, the leaf discs were infested with an aphid population of mixed ages. The samples were assessed for mortality 6 days after infestation.

[5] = system: Myzus persicae (Green Peach Aphid); assay: Activity against Myzus persicae (green peach aphid), systemic activity, pea seedling roots in test solution; details: 144 h, test rate of 24 ppm, aphid population of mixed ages, 6 days after placing seedlings into test solutions
Procedure: Example B6: Activity Against Myzus persicae (Green Peach Aphid) Systemic Activity
Roots of pea seedlings infested with an aphid population of mixed ages were placed directly into aqueous test solutions prepared from 10′000 DMSO stock solutions. The samples were assessed for mortality 6 days after placing seedlings into test solutions.

[6] = system: Euschistus heros (Neotropical Brown Stink Bug); assay: Activity against Euschistus heros (neotropical brown stink bug), sprayed soybean leaves; details: 120 h, application rate of 200 ppm, N2 nymphs, 5 days after infestation, read-out: effect in at least one of the two categories (mortality or growth inhibition)
Procedure: Example B3: Activity Against Euschistus heros (Neotropical Brown Stink Bug)
Soybean leaves on agar in 24-well microtiter plates were sprayed with aqueous test solutions prepared from 10′000 ppm DMSO stock solutions. After drying the leaves were infested with N2 nymphs. The samples were assessed for mortality and growth inhibition in comparison to untreated samples 5 days after infestation.
as §1

[7] = system: Spodoptera littoralis (Egyptian Cotton Leaf Worm); assay: Activity against Spodoptera littoralis (Egyptian cotton leaf worm), sprayed cotton leaf discs; details: foliar, 72 h, application rate of 200 ppm, L1 larvae, 3 days after infestation
Procedure: Example B7: Activity Against Spodoptera littoralis (Egyptian Cotton Leaf Worm)
Cotton leaf discs were placed onto agar in 24-well microtiter plates and sprayed with aqueous test solutions prepared from 10′000 ppm DMSO stock solutions. After drying the leaf discs were infested with five L1 larvae. The samples were assessed for mortality, anti-feeding effect, and growth inhibition in comparison to untreated samples 3 days after infestation. Control of Spodoptera littoralis by a test sample is given when at least one of the categories mortality, anti-feedant effect, and growth inhibition is higher than the untreated sample.

CCSc1cccnc1-c1ncc(OCC(F)(F)C(F)(F)F)c(=O)n1C [Compound P1, 2-(3-ethylsulfanyl-2-pyridyl)-3-methyl-5-(2,2,3,3,3-pentafluoro-propoxy)pyrimidin-4-one]
≥ 80%: mortality at 200 ppm [1] | percent effect (mortality or growth inhibition) at 200 ppm [2] | percent effect (mortality or growth inhibition) at 200 ppm [3] | mortality at 200 ppm [4] | mortality at 24 ppm [5] | percent effect (mortality or growth inhibition) at 200 ppm [6]

CCS(=O)(=O)c1cccnc1-c1ncc(OCC(F)(F)C(F)(F)F)c(=O)n1C [Compound P2, 2-(3-ethylsulfonyl-2-pyridyl)-3-methyl-5-(2,2,3,3,3-pentafluoro-propoxy)pyrimidin-4-one]
≥ 80%: mortality at 200 ppm [1] | percent effect (mortality or growth inhibition) at 200 ppm [2] | percent effect (mortality or growth inhibition) at 200 ppm [3] | mortality at 200 ppm [4] | percent control (mortality, anti-feedant effect or growth inhibition) at 200 ppm [7] | mortality at 24 ppm [5] | percent effect (mortality or growth inhibition) at 200 ppm [6]

CCS(=O)(=O)c1cc(N(C)C(C)=O)cnc1-c1ncc(OCC(F)(F)C(F)(F)F)c(=O)n1C [Compound P5, N-[5-ethylsulfonyl-6-[1-methyl-6-oxo-5-(2,2,3,3,3-pentafluoropropoxy)-pyrimidin-2-yl]-3-pyridyl]-N-methyl-acetamide]
≥ 80%: percent effect (mortality or growth inhibition) at 200 ppm [2] | percent effect (mortality or growth inhibition) at 200 ppm [3] | mortality at 200 ppm [4] | mortality at 24 ppm [5] | percent effect (mortality or growth inhibition) at 200 ppm [6]

CCS(=O)(=O)c1ccc(N(C)C(C)=O)nc1-c1ncc(OCC(F)(F)C(F)(F)F)c(=O)n1C [Compound P9, N-[5-ethylsulfonyl-6-[1-methyl-6-oxo-5-(2,2,3,3,3-pentafluoropropoxy)-pyrimidin-2-yl]-2-pyridyl]-N-methyl-acetamide]
≥ 80%: mortality at 200 ppm [1] | percent effect (mortality or growth inhibition) at 200 ppm [2] | percent effect (mortality or growth inhibition) at 200 ppm [3] | mortality at 200 ppm [4] | mortality at 24 ppm [5]

CCS(=O)(=O)c1cc(C2(C#N)CC2)cnc1-c1ncc(OCC(F)(F)C(F)(F)F)c(=O)n1C [Compound P11, 1-[5-ethylsulfonyl-6-[1-methyl-6-oxo-5-(2,2,3,3,3-pentafluoropropoxy)-pyrimidin-2-yl]-3-pyridyl]cyclopropanecarbonitrile]
≥ 80%: mortality at 200 ppm [1] | percent effect (mortality or growth inhibition) at 200 ppm [2] | percent effect (mortality or growth inhibition) at 200 ppm [3] | mortality at 200 ppm [4] | percent control (mortality, anti-feedant effect or growth inhibition) at 200 ppm [7] | mortality at 24 ppm [5] | percent effect (mortality or growth inhibition) at 200 ppm [6]

CCS(=O)(=O)c1cc(C(C)(C)C#N)cnc1-c1ncc(OCC(F)(F)C(F)(F)F)c(=O)n1C [Compound P13, 2-[5-ethylsulfonyl-6-[1-methyl-6-oxo-5-(2,2,3,3,3-pentafluoropropoxy)pyrimidin-2-yl]-3-pyridyl]-2-methyl-propanenitrile]
≥ 80%: mortality at 200 ppm [1] | percent effect (mortality or growth inhibition) at 200 ppm [2] | percent effect (mortality or growth inhibition) at 200 ppm [3] | percent control (mortality, anti-feedant effect or growth inhibition) at 200 ppm [7] | mortality at 24 ppm [5] | percent effect (mortality or growth inhibition) at 200 ppm [6]

CCS(=O)(=O)c1ccc(-n2cncn2)nc1-c1ncc(OCC(F)(F)C(F)(F)F)c(=O)n1C [Compound P14, 2-[3-ethylsulfonyl-6-(1,2,4-triazol-1-yl)-2-pyridyl]-3-methyl-5-(2,2,3,3,3-pentafluoropropoxy) pyrimidin-4-one]
≥ 80%: mortality at 200 ppm [1] | percent effect (mortality or growth inhibition) at 200 ppm [2] | percent effect (mortality or growth inhibition) at 200 ppm [3] | mortality at 200 ppm [4] | percent control (mortality, anti-feedant effect or growth inhibition) at 200 ppm [7] | mortality at 24 ppm [5] | percent effect (mortality or growth inhibition) at 200 ppm [6]

CCS(=O)(=O)c1ccc(N(C)C(=O)NC)nc1-c1ncc(OCC(F)(F)C(F)(F)F)c(=O)n1C [Compound P15, 1-[5-ethylsulfonyl-6-[1-methyl-6-oxo-5-(2,2,3,3,3-pentafluoropropoxy)pyrimidin-2-yl]-2-pyridyl]-1,3-dimethyl-urea]
≥ 80%: mortality at 200 ppm [4] | mortality at 24 ppm [5] | percent effect (mortality or growth inhibition) at 200 ppm [6]

CCS(=O)(=O)c1ccc(N(C)C(=O)C2CC2)nc1-c1ncc(OCC(F)(F)C(F)(F)F)c(=O)n1C [Compound P16, N-[5-ethylsulfonyl-6-[1-methyl-6-oxo-5-(2,2,3,3,3-pentafluoropropoxy)pyrimidin-2-yl]-2-pyridyl]-N-methyl-cyclo-propanecarboxamide]
≥ 80%: mortality at 200 ppm [1] | percent effect (mortality or growth inhibition) at 200 ppm [2] | percent effect (mortality or growth inhibition) at 200 ppm [3] | mortality at 200 ppm [4] | percent control (mortality, anti-feedant effect or growth inhibition) at 200 ppm [7] | mortality at 24 ppm [5] | percent effect (mortality or growth inhibition) at 200 ppm [6]

CCS(=O)(=O)c1cc(C2CC2)cnc1-c1ncc(OCC(F)(F)C(F)(F)F)c(=O)n1C [Compound P18, 2-(5-cyclopropyl-3-ethylsulfonyl-2-pyridyl)-3-methyl-5-(2,2,3,3,3-pentafluoropropoxy) pyrimidin-4-one]
≥ 80%: percent effect (mortality or growth inhibition) at 200 ppm [2] | percent effect (mortality or growth inhibition) at 200 ppm [3] | mortality at 200 ppm [4] | percent control (mortality, anti-feedant effect or growth inhibition) at 200 ppm [7] | mortality at 24 ppm [5] | percent effect (mortality or growth inhibition) at 200 ppm [6]

CCS(=O)(=O)c1cc(Oc2ccccn2)cnc1-c1ncc(OCC(F)(F)C(F)(F)F)c(=O)n1C [Compound P20, 2-[3-ethylsulfonyl-5-(2-pyridyloxy)-2-pyridyl]-3-methyl-5-(2,2,3,3,3-pentafluoropropoxy) pyrimidin-4-one]
≥ 80%: percent effect (mortality or growth inhibition) at 200 ppm [2] | percent effect (mortality or growth inhibition) at 200 ppm [3] | mortality at 200 ppm [4] | percent control (mortality, anti-feedant effect or growth inhibition) at 200 ppm [7] | mortality at 24 ppm [5] | percent effect (mortality or growth inhibition) at 200 ppm [6]

Source: patent publication US20220144799A1, “PESTICIDALLY ACTIVE HETEROCYCLIC DERIVATIVES WITH SULFUR CONTAINING SUBSTITUENTS” (SYNGENTA CROP PROTECTION AG, priority 2019, published 2022)
